Test results taken from patent US20220389031A1, “MACROCYCLIC SULFONYLAMIDE DERIVATIVES USEFUL AS NLRP3 INHIBITORS” (Inflazome Limited, priority 2019, published 2022).

Assays:
NLRP3 [1] = biological target: T1, NLRP3 (Homo sapiens, UniProt Q96P20); experiment: Human whole blood IL-1β release assay (LPS + nigericin, AlphaLisa); format: cell-based; design: Plate out 80 μl of whole blood containing 1 μg/ml of LPS; from tissue; host or cells: human whole blood from healthy volunteer donors; conditions: NLRP3 inhibitory activity, 1 μg/ml LPS, 3 hrs compound, nigericin 10 μM 1 hr, read-out: HWB IC50
Experimental: For systemic delivery, the ability to inhibit NLRP3 when the compounds are present within the bloodstream is of great importance. For this reason, the NLRP3 inhibitory activity of a number of compounds in human whole blood was investigated in accordance with the following protocol.
Human whole blood in Li-heparin tubes was obtained from healthy donors from a volunteer donor panel. • 1. Plate out 80 μl of whole blood containing 1 μg/ml of LPS in 96-well, clear bottom cell culture plate (Corning #3585) • 2. Add 10 μl compound (8 points half-log dilution with 10 μM top dose) or vehicle (DMSO 0.1% FAC) to the appropriate wells • 3. Incubate for 3 hrs at 37° C., 5% CO2 • 4. Add 10 μl nigericin (Sigma #N7143) (10 μM FAC) to all wells • 5. Incubate for 1 hr at 37° C., 5% CO2 • 6. […] IL-1β was measured according to the manufacturer protocol (Perkin Elmer-AlphaLisa IL-1 Kit AL220F-5000) • 8. IC50 data is fitted to a non-linear regression equation (log inhibitor vs response-variable slope 4-parameters)

NLRP3 [2] = biological target: T1, NLRP3; experiment: THP-1 cells pyroptosis assay (LPS + nigericin, resazurin readout); format: cell-based; design: Seed THP-1 cells (25,000 cells/well) containing 1.0 μg/ml LPS; host or cells: THP-1 cells; conditions: NLRP3 inhibitory activity, 1.0 μg/ml LPS, 3 hrs compound, nigericin 5 μM 1 hr
Experimental: THP-1 cells (ATCC #TIB-202) were grown in RPMI containing L-glutamine (Gibco #11835) supplemented with 1 mM sodium pyruvate (Sigma #S8636) and penicillin (100 units/ml)/streptomycin (0.1 mg/ml) (Sigma #P4333) in 10% Fetal Bovine Serum (FBS) (Sigma #F0804). The cells were routinely passaged and grown to confluency (˜10^6 cells/ml). On the day of the experiment, THP-1 cells were harvested and resuspended into RPMI medium (without FBS). The cells were then counted and viability (>90%) checked by Trypan blue (Sigma #T8154). Appropriate dilutions were made to give a concentration of 625,000 cells/ml. To this diluted cell solution was added LPS (Sigma #L4524) to give a […] Final Assay Concentration (FAC). 40 μl of the final preparation was aliquoted into each well of a 96-well plate. The plate thus prepared was used for compound screening.
The following method step-by-step assay was followed for compound screening. • 1. Seed THP-1 cells (25,000 cells/well) containing 1.0 μg/ml LPS in 40 μl of RPMI medium (without FBS) in 96-well, black walled, clear bottom cell culture plates coated with poly-D-lysine (VWR #734-0317) • 2. Add 5 μl compound (8 points half-log dilution, with 10 μM top dose) or vehicle (DMSO 0.1% FAC) to the appropriate wells • 3. Incubate for 3 hrs at 37° C., 5% CO2 • 4. Add 5 μl nigericin (Sigma #N7143) (FAC 5 μM) to all wells • 5. Incubate for 1 hr at 37° C., 5% CO2 • 6. At the end of the incubation period, spin plates at 300×g for 3 mins and remove supernatant • 7. Then add 50 μl of resazurin (Sigma #R7017) (FAC 100 μM resazurin in RPMI medium without FBS) and incubate plates for a further 1-2 hrs at 37° C. and 5% CO2 • 8. Plates were read in an Envision reader at Ex 560 nm and Em 590 nm • 9. IC50 data is fitted to a non-linear regression equation (log inhibitor vs response-variable slope 4-parameters)

T1 sequence (Q96P20 whole entry): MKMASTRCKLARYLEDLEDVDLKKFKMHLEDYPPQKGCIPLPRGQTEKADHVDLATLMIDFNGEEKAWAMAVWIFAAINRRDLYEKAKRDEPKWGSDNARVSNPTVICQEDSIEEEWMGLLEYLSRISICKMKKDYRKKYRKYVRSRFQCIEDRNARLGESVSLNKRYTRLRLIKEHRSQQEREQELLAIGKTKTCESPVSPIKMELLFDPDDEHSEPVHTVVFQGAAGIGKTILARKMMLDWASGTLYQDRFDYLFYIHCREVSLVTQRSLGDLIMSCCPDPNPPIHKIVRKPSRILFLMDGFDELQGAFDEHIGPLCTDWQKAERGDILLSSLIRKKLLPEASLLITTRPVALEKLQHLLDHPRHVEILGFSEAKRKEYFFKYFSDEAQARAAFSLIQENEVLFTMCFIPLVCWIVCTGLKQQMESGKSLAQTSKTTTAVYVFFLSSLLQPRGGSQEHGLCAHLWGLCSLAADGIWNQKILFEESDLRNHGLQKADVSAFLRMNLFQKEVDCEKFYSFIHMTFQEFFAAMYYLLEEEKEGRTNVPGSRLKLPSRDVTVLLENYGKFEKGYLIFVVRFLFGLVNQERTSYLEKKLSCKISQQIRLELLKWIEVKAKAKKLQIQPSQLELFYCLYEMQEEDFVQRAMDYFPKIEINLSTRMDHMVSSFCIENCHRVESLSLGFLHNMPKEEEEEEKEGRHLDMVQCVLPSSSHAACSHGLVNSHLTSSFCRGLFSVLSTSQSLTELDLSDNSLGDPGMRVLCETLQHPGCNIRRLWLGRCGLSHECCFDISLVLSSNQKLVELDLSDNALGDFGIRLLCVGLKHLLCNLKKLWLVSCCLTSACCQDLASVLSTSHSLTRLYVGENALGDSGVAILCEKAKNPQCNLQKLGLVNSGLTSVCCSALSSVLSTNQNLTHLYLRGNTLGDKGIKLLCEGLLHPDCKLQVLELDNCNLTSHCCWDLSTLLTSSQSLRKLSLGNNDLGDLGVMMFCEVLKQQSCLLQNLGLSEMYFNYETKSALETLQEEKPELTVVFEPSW

| Structure (SMILES) | IC50 (NLRP3 [1]) [nM] | IC50 (NLRP3 [2]) [nM] |
| --- | --- | --- |
| CC(C)c1cccc2c1CC(=O)NS(=O)(=O)c1ccn(n1)C(C)(C)COc1cc-2ccn1 [Example 1, 16,16-dimethyl-6-(propan-2-yl)-18-oxa-11λ^6-thia-10,15,20,24-tetraaza-tetracyclo[17-3-1-1^12,15.0^2,7]tetracosa-1(22),2(7),3,5,12(24),13,19(23),20-octaene-9,11,11-trione] | 1000 to 5000 | 1000 to 5000 |
| Cc1ccc(C(C)C)c2c1-c1ccnc(c1)OCCn1cc(F)c(n1)S(=O)(=O)NC(=O)C2 [Example 13] | 1000 to 5000 | 1000 to 5000 |
| Cc1ccc(C(C)C)c2c1-c1ccnc(c1)OCC(C)(C)n1cc(F)c(n1)S(=O)(=O)NC(=O)C2 [Example 12] | 500 to 1000 | 500 to 1000 |
| CC(C)c1cccc2c1CC(=O)NS(=O)(=O)c1nn(cc1F)-c1ncccc1COc1cc-2ccn1 [Example 38] | 1000 to 5000 | 1000 to 5000 |
| CC(C)c1cccc2c1CC(=O)NS(=O)(=O)c1nn(cc1F)C(C)(C)CCOc1cc-2ccn1 [Example 31] | 1000 to 5000 | 1000 to 5000 |
| Cc1nn2cc1S(=O)(=O)NC(=O)Cc1c(cccc1C(C)C)-c1ccnc(c1)OCC2(C)C [Example 24] | 1000 to 5000 | 500 to 1000 |
| CCN1CCc2c3nn(c2C1)C(C)(C)COc1cc(ccn1)-c1cc(F)cc(C(C)C)c1CC(=O)NS3(=O)=O [Example 40] | 1000 to 5000 | 1000 to 5000 |
| CC1(C)COc2cc(ccn2)-c2cccc(C3CC3)c2CC(=O)NS(=O)(=O)c2nn1cc2F [Example 27] | 500 to 1000 | 1000 to 5000 |
| COc1cn2nc1S(=O)(=O)NC(=O)Cc1c(cc(F)cc1C(C)C)-c1ccnc(c1)OCC2(C)C [Example 19] | 500 to 1000 | 100 to 500 |
| CC(C)c1cccc2c1CC(=O)NS(=O)(=O)c1ccn(n1)CCOc1cc-2ccn1 [Example 4] | 5000 to 10000 | 1000 to 5000 |
| CC(C)c1cc(F)cc2c1CC(=O)NS(=O)(=O)c1nn(c(C(=O)N(C)C)c1F)C(C)(C)COc1cc-2ccn1 [Example 39] | 1000 to 5000 | 1000 to 5000 |
| CC(C)c1cccc2c1CC(=O)NS(=O)(=O)c1cnn(n1)C(C)(C)COc1cc-2ccn1 [Example 36] | 1000 to 5000 | 1000 to 5000 |
| CC(C)(O)c1cc2cc(c1)S(=O)(=O)NC(=O)Cc1c(ccc3c1CCC3)-c1ccnc(c1)OCC2 [Example 17, 17-(2-hydroxypropan-2-yl)-22-oxa-14λ^6-thia-13,24-diazapentacyclo-[21.3.1.1^15,19.0^2,10.0^5,9]octacosa-1(26),2,4,9,15,17,19(28),23(27),24-nonaene-12,14,14-trione] | 1000 to 5000 | 500 to 1000 |
| CC(C)c1cccc2c1CC(=O)NS(=O)(=O)c1cnn(c1)CCOc1cc-2ccn1 [Example 21] | 5000 to 10000 | 1000 to 5000 |
| Cc1ccc(C(C)C)c2c1-c1ccnc(c1)OCC(C)(C)n1ccc(n1)S(=O)(=O)NC(=O)C2 [Example 2] | 500 to 1000 | 1000 to 5000 |
| CC(C)c1cccc2c1CC(=O)NS(=O)(=O)c1cc(n(C(C)C)n1)CCOc1cc-2ccn1 [Example 10] | 1000 to 5000 | 1000 to 5000 |
| CC(C)c1cccc2c1CC(=O)NS(=O)(=O)c1ccn(n1)CCOc1cc-2cnn1 [Example 44, 6-(propan-2-yl)-18-oxa-11λ^6-thia-10,15,20,21,24-pentaazatetracyclo-[17.3.1.1^12,15.0^2,7]tetracosa-1(22),2(7),3,5,12(24),13,19(23),20-octaene-9,11,11-trione] | 5000 to 10000 | 1000 to 5000 |
| CC(C)c1cc(F)cc2c1CC(=O)NS(=O)(=O)c1cc(C(=O)N(C)C)n(n1)C(C)(C)COc1cc-2ccn1 [Example 41] | 1000 to 5000 | 1000 to 5000 |
| CC(C)c1cc(F)cc2c1CC(=O)NS(=O)(=O)c1cnn(c1)CCOc1cc-2ccn1 [Example 22] | 5000 to 10000 | 1000 to 5000 |
| CC(C)c1cccc2c1CC(=O)NS(=O)(=O)c1cc(CN(C)C)n(n1)CCCCCOc1cc-2ccn1 [Example 3] | 5000 to 10000 | 5000 to 10000 |
| CC(C)c1cc(F)cc2c1CC(=O)NS(=O)(=O)c1nn(cc1F)C1(CC1)COc1cc-2ccn1 [Example 20] | 1000 to 5000 | 500 to 1000 |
| CC(C)c1cccc2c1CC(=O)NS(=O)(=O)c1cn(cn1)C(C)(C)COc1cc-2ccn1 [Example 33] | 1000 to 5000 | 500 to 1000 |
| CC(C)c1cccc2c1CC(=O)NS(=O)(=O)c1cc(cc(C(C)(C)O)c1)CCOc1cc-2ccn1 [Example 11] | 1000 to 5000 | 100 to 500 |
| CC(C)c1cc(F)cc2c1CC(=O)NS(=O)(=O)c1nn(cc1F)C(C)(C)COc1cc-2ccn1 [Example 15] | 1000 to 5000 | 100 to 500 |
